Data from the Deep4Chem optical property database.
Values joined by “and” are separate entries in the source; they are usually repeats but may differ in a detail not shown here. Equal entries are not always repeated.

Experiment: solvent given as SMILES

COc1ccc(C(=O)/C=C2\C(=O)Nc3ccccc32)cc1 gave an emission maximum (in C1COCCO1) of 373 nm, an emission maximum (in CC#N) of 372 nm and an emission maximum (in CC(C)(C)O) of 381 nm. The emission maximum (in CC(C)O) was 378 nm, the emission maximum (in CCCCO) was 378 nm and the emission maximum (in CCOC(C)=O) was 375 nm. The emission maximum (in CN(C)C=O) was 375 nm, the emission maximum (in CO) was 380 nm and the emission maximum (in ClCCl) was 411 nm. For the same molecule, the emission maximum (in O) was 407 nm.
Molecule N#CC(C#N)=Cc1ccc2nc(C#Cc3ccc(N(c4ccc(C#Cc5nc6ccc(C=C(C#N)C#N)cc6s5)cc4)c4ccc(C#Cc5nc6ccc(C=C(C#N)C#N)cc6s5)cc4)cc3)sc2c1 has an emission maximum (in Cc1ccccc1) of 512 nm.
Work on Clc1ccc(N2c3sc4ccccc4c3Sc3sc4ccccc4c32)cc1 yielded an emission maximum (in ClCCl) of 563 nm.
Work on c1ccc(-c2cc(-c3nnc(-c4ccc(N5c6ccccc6Oc6ccccc65)cc4)o3)c(-c3ccccc3)c(-c3ccccc3)c2-c2ccccc2)cc1 yielded an emission maximum (in Cc1ccccc1) of 495 nm and an emission maximum (in c1ccc(-n2c(-c3c(-n4c5ccccc5c5ccccc54)cccc3-n3c4ccccc4c4ccccc43)nc3ccccc32)cc1) of 495 nm.
In the case of COCCC1=Cc2nc1ccc1[nH]c(cc1CCOC)c1nc(c(O)cc3[nH]c2cc3CCOC)C(CCOC)=C1, the emission maximum (in Cc1ccccc1) was 688 nm.
In the case of CC(C)(C)OC(=O)/C=C/C1=CC2=C(c3ccccc3)c3cccn3[B-](F)(F)[N+]2=C1, the emission maximum (in ClCCl) was 575 nm.
With CC(C)[Si](C#Cc1c2nsnc2c(C#C[Si](C(C)C)(C(C)C)C(C)C)c2nc3c(ccc4cc5ccccc5cc43)nc12)(C(C)C)C(C)C the emission maximum (in CCCCCC) was 605 nm.
Work on COC(=O)[C@@H]1C(=O)Oc2ccccc2[C@H]1c1c[nH]c2ccccc12 yielded an emission maximum (in CS(C)=O) of 376 nm.
COc1ccc2c(c1)SCC1=C(c3ccccc3)C3=Nc4c(-c5ccccc5)c5c(n4[B-](F)(F)[N+]3=C12)-c1ccc(OC)cc1SC5 showed an emission maximum (in ClC(Cl)Cl) of 730 nm.
In the case of CC(C)(C)OC(=O)CN1CCN(c2ccc3c(-c4ccc(I)cc4)c4ccc(=[N+]5CCN(CC(=O)OC(C)(C)C)CC5)cc-4oc3c2)CC1, the emission maximum (in ClCCl) was 586 nm.
Work on CCN(CC)c1ccc2c(c1)OC1=C(/C=C/C3=[N+](C)c4ccc5ccccc5c4C3(C)C)CCCC1=C2c1ccccc1C(=O)O yielded an emission maximum (in CC#N) of 763 nm, an emission maximum (in CCO) of 750 nm and an emission maximum (in CO) of 753 nm. For the same molecule, the emission maximum (in ClC(Cl)Cl) was 761 nm.
Work on N#Cc1cc2nc3c(nc2cc1C#N)C1c2ccc(N(c4ccccc4)c4ccccc4)cc2C3c2ccc(N(c3ccccc3)c3ccccc3)cc21 yielded an emission maximum (in C1CCCCC1) of 487 nm, an emission maximum (in CC#N) of 492 nm and an emission maximum (in Cc1ccccc1) of 552 nm. For the same molecule, the emission maximum (in ClCCl) was 497 nm.
F[B-]1(F)n2c(cc3oc(-c4ccccc4)cc32)C=C2C=c3oc(-c4ccccc4)cc3=[N+]21 gave an emission maximum (in ClC(Cl)Cl) of 661 nm.
With COc1ccc(C2=[N+]3C(=Nc4c(-c5cc(OC)c(OC)c(OC)c5)c(-c5ccc(C(C)(C)C)cc5)c(-c5ccc(OC)cc5)n4[B-]3(F)F)C(c3cc(OC)c(OC)c(OC)c3)=C2c2ccc(C(C)(C)C)cc2)cc1 the emission maximum (in Cc1ccccc1) was 726 nm.
In the case of OCc1cc2c(cc3ccc4cccc5ccc2c3c45)[nH]1, the emission maximum (in CCOC(C)=O) was 404 nm.
In the case of c1ccc(-c2ccc(-c3cc(-c4ccccn4)nc(-c4ccccn4)c3)cc2)cc1, the emission maximum (in ClCCl) was 360 nm.
For [O-]c1ccccc1/C=N/c1ccccc1/N=C/c1ccccc1[O-], the emission maximum (in C1CCOC1) was 490 nm.
Work on CCCCN1c2ccccc2Sc2cc(/C=C/C3=Nc4ccc5ccccc5c4C3(C)C)ccc21 yielded an emission maximum (in C1CCCCC1) of 517 nm, an emission maximum (in C1CCOC1) of 571 nm and an emission maximum (in C1COCCO1) of 562 nm. It also gave an emission maximum (in CC#N) of 610 nm, an emission maximum (in CC(C)=O) of 598 nm and an emission maximum (in CC(C)O) of 602 nm. It also gave an emission maximum (in CCOC(C)=O) of 564 nm, an emission maximum (in CCOCC) of 546 nm and an emission maximum (in CO) of 635 nm. It also gave an emission maximum (in CS(C)=O) of 612 nm, an emission maximum (in Cc1ccccc1) of 550 nm and an emission maximum (in ClCCl) of 595 nm.
COc1ccc2c(c1)c(C#N)cc1c(OC)c(OC)c3cc(C#N)c4cc(OC)ccc4c3c12 gave an emission maximum (in ClC(Cl)Cl) of 496 nm.
In the case of CCN(CC)c1ccc(/C=C2\CC/C(=C\c3ccc(N(c4ccccc4)c4ccccc4)cc3)C2=C(C#N)C#N)cc1, the emission maximum (in CN(C)C=O) was 716 nm.
Molecule COc1ccc(C2=C(c3ccc(OC)cc3)C(c3ccc(OC)cc3)=[N+]3C2=C(c2ccc(OC)cc2)c2c(-c4ccc(OC)cc4)c(-c4ccc(OC)cc4)c(-c4ccc(OC)cc4)n2[B-]3(F)F)cc1 has an emission maximum (in C1CCOC1) of 640 nm.
In the case of N#C/C(=C\c1ccc(C=C(c2ccccc2)c2ccccc2)cc1)c1ccc([N+](=O)[O-])cc1, the emission maximum (in C1CCOC1) was 552 nm.
In the case of c1ccc(-c2nc(-c3ccc(-c4nc(-c5ccccc5)c(-c5ccccc5)[nH]4)cc3)[nH]c2-c2ccccc2)cc1, the emission maximum (in C1CCOC1) was 421 nm, the emission maximum (in CC#N) was 423.5 nm and 424 nm and the emission maximum (in CC(=O)O) was 482 nm. The emission maximum (in CC(C)=O) was 420 nm, the emission maximum (in CCOC(C)=O) was 420 nm and the emission maximum (in CCOCC) was 419 nm. For the same molecule, the emission maximum (in CO) was 417 nm, the emission maximum (in CS(C)=O) was 410 nm and the emission maximum (in ClC(Cl)Cl) was 437 nm.
With N#Cc1cc2ccc([O-])cc2oc1=O the emission maximum (in O) was 450 nm.
COc1ccc(-c2cc3c(ccc(=O)n3C)s2)cc1 gave an emission maximum (in CC#N) of 424 nm and an emission maximum (in ClCCl) of 426 nm.
Cc1cc2c(o1)c(C)cc1ccc(=O)oc12 gave an emission maximum (in C1CCCCC1) of 360 nm, an emission maximum (in C1COCCO1) of 380 nm and an emission maximum (in CC#N) of 435 nm. The emission maximum (in CCO) was 460 nm and the emission maximum (in OCC(F)(F)F) was 485 nm.
